Converted amounts (≈) assume the structure as drawn. Like-named read-outs stand apart in the source and are kept apart here.
Key:
[1] = target: T1, HpαCA (Helicobacter pylori, UniProt B5Z8I0); assay: stopped-flow CO2 hydration; assay type: biochemical
T1 construct: gene HPG27_1129; recombinant, obtained in-house; PDB 4XFW is given for docking only
T1 sequence (B5Z8I0 22-247): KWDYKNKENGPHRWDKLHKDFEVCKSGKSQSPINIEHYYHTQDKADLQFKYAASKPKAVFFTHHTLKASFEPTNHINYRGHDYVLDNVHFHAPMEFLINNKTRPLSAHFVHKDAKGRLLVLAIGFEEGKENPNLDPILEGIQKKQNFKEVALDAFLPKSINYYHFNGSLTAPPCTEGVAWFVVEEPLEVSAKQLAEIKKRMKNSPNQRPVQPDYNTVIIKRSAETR

[2] = target: T2, PsCA3 (Pseudomonas aeruginosa, UniProt Q9HVB9); assay: stopped-flow CO2 hydration; assay type: biochemical; settings: read-out: KI (nM) * / Bacterial Isoforms / Ps CA3
T2 construct: gene PA4676; recombinant, obtained in-house
T2 sequence (Q9HVB9 1-215): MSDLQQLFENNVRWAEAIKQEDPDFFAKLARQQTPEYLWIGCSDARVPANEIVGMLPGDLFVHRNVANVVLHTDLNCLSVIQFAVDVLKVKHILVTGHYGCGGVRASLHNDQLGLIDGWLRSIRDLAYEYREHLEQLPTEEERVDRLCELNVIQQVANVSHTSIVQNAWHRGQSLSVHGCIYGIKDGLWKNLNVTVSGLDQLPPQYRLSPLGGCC

[3] = target: T3, hCA IX (Homo sapiens, UniProt Q16790); assay: stopped-flow CO2 hydration; assay type: biochemical; settings: read-out: KI (nM) * / Human Isoforms / hCA IX
T3 construct: gene CA9
From the text: stopped-flow CO2 hydration on hCA IX

[4] = target: T4, hCA II (Homo sapiens, UniProt P00918); assay: stopped-flow CO2 hydration; assay type: biochemical; settings: read-out: KI (nM) * / Human Isoforms / hCA II
T4 construct: gene CA2; purchased from Merck
From the text: stopped-flow CO2 hydration on hCA II

[5] = target: T5, EcoβCA (Escherichia coli, UniProt P61517); assay: stopped-flow CO2 hydration; assay type: biochemical; settings: read-out: KI (nM) * / Bacterial Isoforms / Eco βCA
T5 construct: gene can; recombinant, obtained in-house
T5 sequence (P61517 whole entry, canonical isoform): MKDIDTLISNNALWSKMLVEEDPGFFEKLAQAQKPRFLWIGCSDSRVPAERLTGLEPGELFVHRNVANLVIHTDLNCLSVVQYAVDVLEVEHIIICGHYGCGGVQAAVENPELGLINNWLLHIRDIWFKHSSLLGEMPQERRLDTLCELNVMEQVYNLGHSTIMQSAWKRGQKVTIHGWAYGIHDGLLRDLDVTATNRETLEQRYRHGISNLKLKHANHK

[6] = target: T6, PgiγCA; assay: stopped-flow CO2 hydration; assay type: biochemical, Porphyromonas gingivalis; settings: pH […] HEPES, […] Na2SO4, […] min preincubation, r.t.; read-out: KI (nM) * / Bacterial Isoforms / Pgi γCA
T6 construct: gene PgiCA; recombinant, obtained in-house

[7] = target: T7, hCA I (Homo sapiens, UniProt P00915); assay: stopped-flow CO2 hydration; assay type: biochemical; settings: read-out: KI (nM) * / Human Isoforms / hCA I
T7 construct: gene CA1; purchased from Merck
T7 sequence (P00915 2-261): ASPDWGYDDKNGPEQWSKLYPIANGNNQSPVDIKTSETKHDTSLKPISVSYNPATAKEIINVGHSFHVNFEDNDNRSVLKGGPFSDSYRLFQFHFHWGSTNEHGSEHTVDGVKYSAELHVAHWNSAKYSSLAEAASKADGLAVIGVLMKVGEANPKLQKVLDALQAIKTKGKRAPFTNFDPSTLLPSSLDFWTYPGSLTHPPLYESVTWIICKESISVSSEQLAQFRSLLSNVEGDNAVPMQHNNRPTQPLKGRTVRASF
From the text: stopped-flow CO2 hydration on hCA I

[8] = target: T8, PgiβCA; assay: stopped-flow CO2 hydration; assay type: biochemical, Porphyromonas gingivalis; settings: pH […] HEPES, […] Na2SO4, […] min preincubation, r.t.; read-out: KI (nM) * / Bacterial Isoforms / Pgi βCA
T8 construct: gene PgiCAb; recombinant, obtained in-house

[9] = test system: T9, H. pylori ATCC 43504; assay: microbe, parasite or virus in culture; set-up: species or system Helicobacter pylori ATCC 43504; MIC by broth microdilution, alamarBlue and CFU count; MBC by CFU count; settings: Helicobacter pylori, ATCC43504
T9 construct: ATCC 43504
Experimental: H. pylori ATCC 43504 was cultured on a Columbia Agar base (Becton Dickinson and Company, Franklin Lakes, NJ, USA) supplemented with 10% horse serum (Merck, St. Louis, MO, USA) and 0.25% yeast extract (Oxoid Ltd., Hampshire, UK), incubated at 37 °C for 72 h in a microaerophilic atmosphere (CampyGen, Thermo Fisher Scientific, Milan, Italy). Colonies were collected and transferred into 10 mL of Brain Heart Infusion broth (BHI, Oxoid Ltd., Hampshire, UK) supplemented with 5% (v/v) of fetal bovine serum (FBS, Merck, Milan, Italy) and incubated overnight at 37 °C, at 125 rpm under microaerophilic conditions. After 18 h of incubation, the broth culture was diluted to obtain a bacterial suspension of 10^6 CFU/mL. MICs were determined by three different assays: the broth micro-dilution method, the alamarBlue assay, and the CFU count. […] This bacterium was selected based on the inhibitory potency evidenced by the two series of azobenzenesulfonamides against the HpCAs.

[10] = target: T10, hCA XII (Homo sapiens, UniProt O43570); assay: stopped-flow CO2 hydration; assay type: biochemical; settings: read-out: KI (nM) * / Human Isoforms / hCA XII
T10 construct: gene CA12
T10 sequence (O43570 30-289 limits assumed): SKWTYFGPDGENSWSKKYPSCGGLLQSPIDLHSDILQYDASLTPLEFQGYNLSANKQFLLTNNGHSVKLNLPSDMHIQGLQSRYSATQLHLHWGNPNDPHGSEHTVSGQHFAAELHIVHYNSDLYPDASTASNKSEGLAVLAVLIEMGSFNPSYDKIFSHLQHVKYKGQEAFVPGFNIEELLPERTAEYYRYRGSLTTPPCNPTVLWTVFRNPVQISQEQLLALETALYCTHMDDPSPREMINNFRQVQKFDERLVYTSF
From the text: stopped-flow CO2 hydration on hCA XII

[11] = target: T11, HpβCA (Helicobacter pylori, UniProt Q9ZN54); assay: stopped-flow CO2 hydration; assay type: biochemical; settings: read-out: KI (nM) * / Bacterial Isoforms / Hp βCA
T11 construct: gene cynT; recombinant, obtained in-house
T11 sequence (Q9ZN54 1-221): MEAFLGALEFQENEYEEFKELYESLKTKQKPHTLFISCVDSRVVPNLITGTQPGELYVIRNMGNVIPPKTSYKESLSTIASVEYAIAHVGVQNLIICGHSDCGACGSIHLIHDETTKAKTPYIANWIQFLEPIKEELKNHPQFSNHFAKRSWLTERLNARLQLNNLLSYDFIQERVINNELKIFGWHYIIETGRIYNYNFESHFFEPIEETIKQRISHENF

[12] = target: T2, PsCA3; assay: biochemical; settings: read-out: Bacterial Isoforms / Ps CA3
Experimental: (§1) An Applied Photophysics stopped-flow instrument was used to evaluate the ability of the test compounds to inhibit CA-catalyzed CO2 hydration. […] The CO2 concentrations ranged from 1.7 to 17 mM for the determination of the kinetic parameters and inhibition constants. Enzyme concentrations spanned from 5 to 12 nM. Stock solutions of the inhibitor (0.1 mM) were prepared in distilled–deionized water, and dilutions up to 0.01 nM were prepared with the assay buffer. Inhibitor and enzyme solutions were preincubated for 15 min at r.t. for the formation of the E–I complex. The inhibition constants were obtained by non-linear least-squares methods using PRISM 3 and the Cheng–Prusoff equation and represent the mean from at least three different determinations. Apart from human CAs I and II purchased from Merck, all the bacterial CAs were recombinant and obtained in-house. Compounds 4a–j and 5a–j were tested on a large panel of human and bacterial isoenzymes belonging to different CA families, evaluating their inhibitory activity through the CO2 hydration activity assay by means of the stopped-flow technique, and the inhibitory constants (KIs) are reported in Table 1 and Table 2, respectively. In particular, we tested the hypoxic tumor-associated hCAs IX and XII, and bacterial isoforms involved in several infectious diseases, such as those caused by H. pylori (HpαCA and HpβCA), Porphyromonas gingivalis (PgiβCA and PgiγCA), Escherichia coli (EcoβCA), Pseudomonas aeruginosa (PsCA3, belonging to the β-class), Mammaliicoccus (Staphylococcus) sciuri (MscCA, belonging to the β-class), and Streptococcus mutans (SmuCA, belonging to the β-class). The inhibition of human physiologically relevant isoforms I and II was also investigated in order to assess the compounds’ selectivity. Our main aim was to rationalize the structural requirements of sulfonamide-containing compounds useful for targeting HpCAs, in order to gain a larger knowledge for further optimization studies focusing on isoform selectivity. In fact, although the tested human and bacterial isoforms present a low degree of sequence similarity, they catalyze the same reaction and contain the catalytically active zinc ion in the active site. Thus, a comparison of the data obtained from different members of this large superfamily has a high relevance in the field. By observing Table 1 and Table 2, interesting structure–activity relationship (SAR) considerations can be inferred.

[13] = target: T7, hCA I; assay: biochemical; settings: read-out: Human Isoforms / hCA I
Experimental: as §1

[14] = target: T3, hCA IX; assay: biochemical; settings: read-out: Human Isoforms / hCA IX
Experimental: as §1

[15] = target: T10, hCA XII; assay: biochemical; settings: read-out: Human Isoforms / hCA XII
Experimental: as §1

[16] = target: T5, EcoβCA; assay: biochemical; settings: read-out: Bacterial Isoforms / Eco βCA
Experimental: as §1

[17] = read-out: KI (nM) * / Bacterial Isoforms / Hp αCA

## COc1ccc(O)c(/N=N/c2ccc(S(N)(=O)=O)cc2)c1 [4a, (E)-4-((2-hydroxy-5-methoxyphenyl)diazenyl)benzenesulfonamide]
[1]; [17]
  Ki: 65.8 nM
[2]
  Ki: 228 nM
[3]
  Ki: 201 nM
[4]
  Ki: 24.1 nM
[5]
  Ki: 400 nM
[6]
  Ki: 3440 nM
[7]
  Ki: 45 nM
[8]
  Ki: 803 nM
[9]
  MBC: 32 µg/mL (≈ 104 µM)
  MIC: 8 µg/mL (≈ 26 µM)
[10]
  Ki: 9.5 nM
[11]
  Ki: 74.1 nM

## COc1cc(/N=N/c2ccc(S(N)(=O)=O)cc2)ccc1O [4b, (E)-4-((4-hydroxy-3-methoxyphenyl)diazenyl)benzenesulfonamide]
[1]; [17]
  Ki: 120 nM
[2]
  Ki: 702 nM
[3]
  Ki: 831 nM
[4]
  Ki: 3.3 nM
[5]
  Ki: 95.8 nM
[6]
  Ki: 837 nM
[7]
  Ki: 34.8 nM
[8]
  Ki: 1920 nM
[9]
  MBC: 32 µg/mL (≈ 104 µM)
  MIC: 32 µg/mL (≈ 104 µM)
[10]
  Ki: 21.8 nM
[11]
  Ki: 49.7 nM

## COc1cc(O)ccc1/N=N/c1ccc(S(N)(=O)=O)cc1 [4c, (E)-4-((4-hydroxy-2-methoxyphenyl)diazenyl)benzenesulfonamide]
[1]; [17]
  Ki: 70.9 nM
[2]
  Ki: 221 nM
[3]
  Ki: 545 nM
[4]
  Ki: 5.4 nM
[5]
  Ki: 96.3 nM
[6]
  Ki: 2000 nM
[7]
  Ki: 84.9 nM
[8]
  Ki: 3630 nM
[9]
  MBC: 16 µg/mL (≈ 52.1 µM)
  MIC: 8 µg/mL (≈ 26 µM)
[10]
  Ki: 34.7 nM
[11]
  Ki: 17.1 nM

## NS(=O)(=O)c1ccc(/N=N/c2ccc(O)c(C(F)(F)F)c2)cc1 [4d, (E)-4-((4-hydroxy-3-(trifluoromethyl)phenyl)diazenyl)benzenesulfonamide]
[1]; [17]
  Ki: 39 nM
[2]
  Ki: 222 nM
[3]
  Ki: 182 nM
[4]
  Ki: 4.8 nM
[5]
  Ki: 738 nM
[6]
  Ki: 94.7 nM
[7]
  Ki: 20.1 nM
[8]
  Ki: 3170 nM
[9]
  MBC: 128 µg/mL (≈ 371 µM)
  MIC: 64 µg/mL (≈ 185 µM)
[10]
  Ki: 40.2 nM
[11]
  Ki: 19.4 nM

## NS(=O)(=O)c1ccc(/N=N/c2ccc(O)cc2C(F)(F)F)cc1 [4e, (E)-4-((4-hydroxy-2-(trifluoromethyl)phenyl)diazenyl)benzenesulfonamide]
[1]; [17]
  Ki: 89.2 nM
[2]
  Ki: 495 nM
[3]
  Ki: 191 nM
[4]
  Ki: 4.2 nM
[5]
  Ki: 95.3 nM
[6]
  Ki: 347 nM
[7]
  Ki: 5.4 nM
[8]
  Ki: 899 nM
[9]
  MBC: 16 µg/mL (≈ 46.3 µM)
  MIC: 8 µg/mL (≈ 23.2 µM)
[10]
  Ki: 54.1 nM
[11]
  Ki: 68.8 nM

## Cc1cc(/N=N/c2ccc(S(N)(=O)=O)cc2)c(C)cc1O [4f, (E)-4-((4-hydroxy-2,5-dimethylphenyl)diazenyl)benzenesulfonamide]
[1]; [17]
  Ki: 69.4 nM
[2]
  Ki: 191 nM
[3]
  Ki: 97.1 nM
[4]
  Ki: 1.9 nM
[5]
  Ki: 867 nM
[6]
  Ki: 472 nM
[7]
  Ki: 5.7 nM
[8]
  Ki: 3760 nM
[9]
  MBC: 32 µg/mL (≈ 105 µM)
  MIC: 32 µg/mL (≈ 105 µM)
[10]
  Ki: 56.7 nM
[11]
  Ki: 70.6 nM

## Cc1cc(O)cc(C)c1/N=N/c1ccc(S(N)(=O)=O)cc1 [4g, (E)-4-((4-hydroxy-2,6-dimethylphenyl)diazenyl)benzenesulfonamide]
[1]; [17]
  Ki: 142 nM
[2]
  Ki: 879 nM
[3]
  Ki: 171 nM
[4]
  Ki: 3.7 nM
[5]
  Ki: 550 nM
[6]
  Ki: 939 nM
[7]
  Ki: 4.9 nM
[8]
  Ki: 3670 nM
[9]
  MBC: 32 µg/mL (≈ 105 µM)
  MIC: 16 µg/mL (≈ 52.4 µM)
[10]
  Ki: 63.9 nM
[11]
  Ki: 74.3 nM

## Cc1ccc(O)c(/N=N/c2ccc(S(N)(=O)=O)cc2)c1 [4h, (E)-4-((2-hydroxy-5-methylphenyl)diazenyl)benzenesulfonamide]
[1]; [17]
  Ki: 130 nM
[2]
  Ki: 980 nM
[3]
  Ki: 184 nM
[4]
  Ki: 6.6 nM
[5]
  Ki: 360 nM
[6]
  Ki: 772 nM
[7]
  Ki: 68.4 nM
[8]
  Ki: 3850 nM
[9]
  MBC: 64 µg/mL (≈ 220 µM)
  MIC: 32 µg/mL (≈ 110 µM)
[10]
  Ki: 9.6 nM
[11]
  Ki: 127 nM

## Cc1cc(/N=N/c2ccc(S(N)(=O)=O)cc2)ccc1O [4i, (E)-4-((4-hydroxy-3-methylphenyl)diazenyl)benzenesulfonamide]
[1]; [17]
  Ki: 140 nM
[2]
  Ki: 114 nM
[3]
  Ki: 181 nM
[4]
  Ki: 3.4 nM
[5]
  Ki: 2110 nM
[6]
  Ki: 6330 nM
[7]
  Ki: 4.4 nM
[8]
  Ki: 2070 nM
[9]
  MBC: 64 µg/mL (≈ 220 µM)
  MIC: 32 µg/mL (≈ 110 µM)
[10]
  Ki: 7.5 nM
[11]
  Ki: 119 nM

## CS(=O)(=O)Nc1ccc(N=Nc2ccccc2)cc1 [5i]
[12]
  Ki: 9280 nM
[13]
  Ki: 5990 nM
[14]
  Ki: 599 nM
[15]
  Ki: 2240 nM
[16]
  Ki: 6950 nM
[1]; read-out: KI (nM) / Bacterial Isoforms / Hp αCA
  Ki: 89.8 nM
[9]
  MBC: 32 µg/mL (≈ 116 µM)
  MIC: 16 µg/mL (≈ 58.1 µM)

## CC1(C)S[C@@H]2[C@H](NC(=O)[C@H](N)c3ccc(O)cc3)C(=O)N2[C@H]1C(=O)O [Amoxicillin]
[9]
  MBC: 0.064 µg/mL (≈ 0.175 µM)
  MIC: 0.064 µg/mL (≈ 0.175 µM)

Source: article PMC11357054, “Azobenzenesulfonamide Carbonic Anhydrase Inhibitors as New Weapons to Fight Helicobacter pylori: Synthesis, Bioactivity Evaluation, In Vivo Toxicity, and Computational Studies” (Pharmaceuticals, 2024)
